Measured values taken from PubChem BioAssay AID328 (DTP/NCI, 2004).
Values joined by “and” are separate entries in the source; they are usually repeats but may differ in a detail not shown here. Identical values can stand only once. Toxic doses and inconclusive results are not listed.

Tested on: BDF1 mice, P388 leukemia ip, median survival T/C
Assay: NCI In Vivo Anticancer Drug Screen. Data for tumor model P388 Leukemia (intraperitoneal) in B6D2F1 (BDF1) mice
Settings: endpoint: median survival time, higher = longer survival
In short: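 Read-out is survival of treated animals expressed relative to the vehicle group, as a T/C ratio.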

[1] = dose: 50.0 mg/kg/injection, schedule: Q01DX009 (ip), vehicle: saline with Tween-80
[2] = dose: 100.0 mg/kg/injection, schedule: Q01DX009 (ip), vehicle: saline with Tween-80
[3] = dose: 200.0 mg/kg/injection, schedule: Q01DX009 (ip), vehicle: saline with Tween-80
[4] = dose: 400.0 mg/kg/injection, schedule: Q01DX009 (ip), vehicle: saline with Tween-80
[5] = dose: 12.5 mg/kg/injection, schedule: Q04DX003 (ip), vehicle: saline

In the case of `COc1cc2c(c(OC)c1OC)-c1ccc(OC)c(=O)cc1[C@@H](NC=O)CC2`, the T/C (dose: 0.05 mg/kg/injection, schedule: Q01DX009 (ip), vehicle: Klucel (hydroxypropylcellulose) (HPC)) is reported as 120 % of control, the T/C (dose: 0.09 mg/kg/injection, schedule: Q01DX009 (ip), vehicle: Klucel (hydroxypropylcellulose) (HPC)) is reported as 160 % of control and the T/C (dose: 0.19 mg/kg/injection, schedule: Q01DX009 (ip), vehicle: Klucel (hydroxypropylcellulose) (HPC)) is reported as 160 % of control. The T/C (dose: 0.37 mg/kg/injection, schedule: Q01DX010 (ip), vehicle: saline) was 154 % of control, the T/C (dose: 0.38 mg/kg/injection, schedule: Q01DX009 (ip), vehicle: Klucel (hydroxypropylcellulose) (HPC)) was 190 % of control and the T/C (dose: 0.38 mg/kg/injection, schedule: Q01DX010 (ip), vehicle: saline) was 158 % of control. The T/C (dose: 0.75 mg/kg/injection, schedule: Q01DX009 (ip), vehicle: Klucel (hydroxypropylcellulose) (HPC)) was 100 % of control, the T/C (dose: 0.75 mg/kg/injection, schedule: Q01DX010 (ip), vehicle: saline) was 170 % of control and the T/C (dose: 6.3 micrograms/kg/injection, schedule: Q01DX010 (ip), vehicle: saline) was 100 % of control. For the same compound, the T/C (dose: 12.0 micrograms/kg/injection, schedule: Q01DX009 (ip), vehicle: Klucel (hydroxypropylcellulose) (HPC)) was 100 % of control, the T/C (dose: 12.5 micrograms/kg/injection, schedule: Q01DX010 (ip), vehicle: saline) was 88 % of control and the T/C (dose: 23.0 micrograms/kg/injection, schedule: Q01DX009 (ip), vehicle: Klucel (hydroxypropylcellulose) (HPC)) was 120 % of control. The T/C (dose: 25.0 micrograms/kg/injection, schedule: Q01DX010 (ip), vehicle: saline) was 111 % of control and the T/C (dose: 50.0 micrograms/kg/injection, schedule: Q01DX010 (ip), vehicle: saline) was 111 % of control.
For `CC1(C)CS(=O)(=O)CC1=O`, the T/C (dose: 25.0 mg/kg/injection, schedule: Q01DX001 (ip), vehicle: Klucel (hydroxypropylcellulose) (HPC)) was 100 % of control, the T/C (dose: 50.0 mg/kg/injection, schedule: Q01DX001 (ip), vehicle: Klucel (hydroxypropylcellulose) (HPC)) was 100 % of control and the T/C (dose: 100.0 mg/kg/injection, schedule: Q01DX001 (ip), vehicle: Klucel (hydroxypropylcellulose) (HPC)) was 90 % of control and 104 % of control.
With `CCn1c(O)c(N=NC(=S)NC)c2ccccc21` the T/C (dose: 37.5 mg/kg/injection, schedule: Q01DX009 (ip), vehicle: saline with Tween-80) was 86 % of control.
With `CC(=N\O)/C(C)=N/O.CC(=N\O)/C(C)=N/O.[Cu]` the T/C (dose: 3.0 mg/kg/injection, schedule: Q01DX009 (ip), vehicle: Klucel (hydroxypropylcellulose) (HPC)) was 100 % of control, the T/C (dose: 6.25 mg/kg/injection, schedule: Q04DX003 (ip), vehicle: Klucel (hydroxypropylcellulose) (HPC)) was 118 % of control and the T/C (dose: 12.5 mg/kg/injection, schedule: Q04DX003 (ip), vehicle: Klucel (hydroxypropylcellulose) (HPC)) was 118 % of control.
In the case of `OCCc1ccccc1`, the T/C (dose: 100.0 mg/kg/injection, schedule: Q01DX009 (ip), vehicle: saline sonified) is reported as 100 % of control and the T/C (dose: 200.0 mg/kg/injection, schedule: Q01DX009 (ip), vehicle: saline sonified) is reported as 100 % of control.
In the case of `O=C1Nc2ccccc2SC1C1SC(=S)N(Cc2ccccc2)C1=O` (stereo not drawn), the T/C [1] is reported as 102 % of control, the T/C [2] is reported as 86 % of control and the T/C [3] is reported as 86 % of control.
In the case of `COc1ccc(/C=C/c2ccnc3ccccc23)cc1`, the T/C [2] is reported as 93 % of control, the T/C [3] is reported as 111 % of control and the T/C [4] is reported as 93 % of control.
With `COc1cc(C=O)ccc1OCc1ccccc1` the T/C (dose: 1.0 mg/kg/injection, schedule: Q01DX009 (ip), vehicle: saline with Tween-80) was 109 % of control, the T/C (dose: 2.0 mg/kg/injection, schedule: Q01DX009 (ip), vehicle: saline with Tween-80) was 104 % of control and the T/C (dose: 4.0 mg/kg/injection, schedule: Q01DX009 (ip), vehicle: saline with Tween-80) was 104 % of control. For the same compound, the T/C (dose: 8.0 mg/kg/injection, schedule: Q01DX009 (ip), vehicle: saline with Tween-80) was 92 % of control, the T/C (dose: 100.0 mg/kg/injection, schedule: Q04DX003 (ip), vehicle: saline with Tween-80) was 95 % of control and the T/C (dose: 200.0 mg/kg/injection, schedule: Q04DX003 (ip), vehicle: saline with Tween-80) was 109 % of control. The T/C (dose: 400.0 mg/kg/injection, schedule: Q04DX003 (ip), vehicle: saline with Tween-80) was 109 % of control.
In the case of `NC(=S)c1ccc[n+](Cc2c(Cl)cccc2Cl)c1`, the T/C (dose: 50.0 mg/kg/injection, schedule: Q04DX002 (ip), vehicle: saline with Tween-80) is reported as 110 % of control and the T/C (dose: 100.0 mg/kg/injection, schedule: Q04DX002 (ip), vehicle: saline with Tween-80) is reported as 101 % of control.
In the case of `NNC(=O)c1cccc(N)c1`, the T/C (dose: 25.0 mg/kg/injection, schedule: Q01DX009 (ip), vehicle: saline with Tween-80) is reported as 100 % of control, the T/C [1] is reported as 90 % of control and the T/C [2] is reported as 100 % of control.
`CCOC(=O)C1CN(c2ccccc2)C(=O)C1=O` (stereo not drawn) was tested, and the T/C (dose: 50.0 mg/kg/injection, schedule: Q01DX009 (ip), vehicle: Klucel (hydroxypropylcellulose) (HPC)) was 112 % of control, the T/C (dose: 100.0 mg/kg/injection, schedule: Q01DX009 (ip), vehicle: Klucel (hydroxypropylcellulose) (HPC)) was 118 % of control and the T/C (dose: 200.0 mg/kg/injection, schedule: Q01DX009 (ip), vehicle: Klucel (hydroxypropylcellulose) (HPC)) was 110 % of control. For the same compound, the T/C (dose: 400.0 mg/kg/injection, schedule: Q01DX009 (ip), vehicle: Klucel (hydroxypropylcellulose) (HPC)) was 110 % of control.
For `CC1CCC2CON(C(C)(C)C)C2C1` (stereo not drawn), the T/C [1] was 100 % of control and the T/C [2] was 100 % of control.
With `CCCN(CCC)CC(O)c1cc(C(F)(F)F)nc2c(C(F)(F)F)cccc12` (stereo not drawn) the T/C [1] was 103 % of control, the T/C [2] was 100 % of control and the T/C [3] was 97 % of control.
For `CCCCN=C(N)N=C(N)N`, the T/C (dose: 50.0 mg/kg/injection, schedule: Q01DX009 (ip), vehicle: saline) was 105 % of control and the T/C (dose: 100.0 mg/kg/injection, schedule: Q01DX009 (ip), vehicle: saline) was 108 % of control.
For `O=C(c1cccs1)C1Cc2ccccc2C1=O` (stereo not drawn), the T/C [2] was 100 % of control, the T/C [3] was 116 % of control and the T/C [4] was 100 % of control.
In the case of `C[n+]1cccc(NC(=O)c2ccc(NC(=O)c3ccc(C(=O)Nc4ccc(NC(=N)N)cc4)cc3)cc2)c1`, the T/C (dose: 3.3 mg/kg/injection, schedule: Q04DX003 (ip), vehicle: saline) is reported as 150 % of control, the T/C (dose: 5.0 mg/kg/injection, schedule: Q04DX003 (ip), vehicle: saline) is reported as 159 % of control and the T/C (dose: 5.56 mg/kg/injection, schedule: Q04DX003 (ip), vehicle: saline) is reported as 180 % of control. The T/C (dose: 7.5 mg/kg/injection, schedule: Q04DX003 (ip), vehicle: saline) was 195 % of control, the T/C (dose: 8.33 mg/kg/injection, schedule: Q04DX003 (ip), vehicle: saline) was 235 % of control and the T/C [5] was 235 % of control. For the same compound, the T/C (dose: 18.7 mg/kg/injection, schedule: Q04DX003 (ip), vehicle: saline) was 155 % of control.
In the case of `CCCC[N+](CCCC)(CCCC)CCCC.Cc1ccc([SH2+])c([SH2+])c1.Cc1ccc([SH2+])c([SH2+])c1.[Fe+3]`, the T/C (dose: 45.0 mg/kg/injection, schedule: Q04DX003 (ip), vehicle: Klucel (hydroxypropylcellulose) (HPC)) is reported as 109 % of control, the T/C (dose: 65.0 mg/kg/injection, schedule: Q04DX003 (ip), vehicle: Klucel (hydroxypropylcellulose) (HPC)) is reported as 118 % of control and the T/C (dose: 100.0 mg/kg/injection, schedule: Q01DX001 (ip), vehicle: other) is reported as 112 % of control. The T/C (dose: 150.0 mg/kg/injection, schedule: Q04DX003 (ip), vehicle: Klucel (hydroxypropylcellulose) (HPC)) was 118 % of control, the T/C (dose: 200.0 mg/kg/injection, schedule: Q01DX001 (ip), vehicle: other) was 112 % of control and the T/C (dose: 200.0 mg/kg/injection, schedule: Q04DX003 (ip), vehicle: Klucel (hydroxypropylcellulose) (HPC)) was 90 % of control and 120 % of control. For the same compound, the T/C (dose: 400.0 mg/kg/injection, schedule: Q01DX001 (ip), vehicle: other) was 108 % of control and the T/C (dose: 400.0 mg/kg/injection, schedule: Q04DX003 (ip), vehicle: Klucel (hydroxypropylcellulose) (HPC)) was 120 % of control.
`CC[N+](CC)(CC)CCCCCC[N+](CC)(CC)CC` was tested, and the T/C (dose: 1.0 mg/kg/injection, schedule: Q01DX009 (ip), vehicle: water) was 100 % of control, the T/C (dose: 2.0 mg/kg/injection, schedule: Q01DX009 (ip), vehicle: water) was 104 % of control and the T/C (dose: 2.0 mg/kg/injection, schedule: Q04DX003 (ip), vehicle: water) was 102 % of control and 103 % of control. The T/C (dose: 4.0 mg/kg/injection, schedule: Q01DX009 (ip), vehicle: water) was 97 % of control, the T/C (dose: 4.0 mg/kg/injection, schedule: Q04DX003 (ip), vehicle: water) was 116 % of control and the T/C (dose: 6.0 mg/kg/injection, schedule: Q04DX003 (ip), vehicle: water) was 102 % of control. The T/C (dose: 6.25 mg/kg/injection, schedule: Q04DX003 (ip), vehicle: water) was 123 % of control, the T/C (dose: 8.0 mg/kg/injection, schedule: Q01DX009 (ip), vehicle: water) was 104 % of control and the T/C (dose: 8.0 mg/kg/injection, schedule: Q04DX003 (ip), vehicle: water) was 100 % of control.
For `CSCCC(NC(=O)NC(CCSC)C(=O)Oc1ccc([N+](=O)[O-])cc1)C(=O)Oc1ccc([N+](=O)[O-])cc1` (stereo not drawn), the T/C [1] was 87 % of control, the T/C [2] was 96 % of control and the T/C [3] was 112 % of control.
With `C1CC[N-]CC1.C1CC[N-]CC1.C1CC[N-]CC1.C1CC[N-]CC1.[Cl][Rh][Cl]` the T/C [5] was 118 % of control.
